Results on one molecule are retold here after patent publication US20230026232A1, “AHR INHIBITORS AND USES THEREOF” (Ikena Oncology, Inc., priority 2019, published 2023).

Entries after “also recorded” stand apart in the source; their conditions may differ.

Data set [1] concerns the target T1, AHR (Mus musculus, UniProt P30561).
T1 sequence (P30561 10-805): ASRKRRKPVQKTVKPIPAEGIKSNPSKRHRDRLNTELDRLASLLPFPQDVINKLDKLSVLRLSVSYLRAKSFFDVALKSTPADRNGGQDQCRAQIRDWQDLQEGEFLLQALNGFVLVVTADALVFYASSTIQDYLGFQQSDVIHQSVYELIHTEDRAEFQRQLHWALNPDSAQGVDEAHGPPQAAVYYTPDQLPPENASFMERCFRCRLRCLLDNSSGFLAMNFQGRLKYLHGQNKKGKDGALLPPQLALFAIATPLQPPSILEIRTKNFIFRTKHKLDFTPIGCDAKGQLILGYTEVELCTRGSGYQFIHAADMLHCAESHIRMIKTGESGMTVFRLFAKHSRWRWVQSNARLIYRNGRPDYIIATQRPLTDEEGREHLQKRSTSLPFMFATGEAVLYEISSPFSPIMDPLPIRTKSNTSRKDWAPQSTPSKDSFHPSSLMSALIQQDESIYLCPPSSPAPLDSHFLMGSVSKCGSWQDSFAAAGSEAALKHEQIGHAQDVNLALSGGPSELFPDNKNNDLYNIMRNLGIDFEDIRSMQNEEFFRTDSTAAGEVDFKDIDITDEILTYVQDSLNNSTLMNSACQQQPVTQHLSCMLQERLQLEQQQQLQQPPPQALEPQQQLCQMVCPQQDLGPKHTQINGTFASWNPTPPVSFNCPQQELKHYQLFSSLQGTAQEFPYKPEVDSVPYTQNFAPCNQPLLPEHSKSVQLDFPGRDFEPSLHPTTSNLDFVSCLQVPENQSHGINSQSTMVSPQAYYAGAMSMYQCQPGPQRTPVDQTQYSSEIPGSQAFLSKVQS
In words: AHR-dependent Cyp1A1 expression (P450-Glo) in mouse Hepa1.6 cells stimulated with VAF347. Type of data set: cell-based. The following applies: read-out: IC50, AHR-dependent expression of Cyp1A1; murine Hepa1.6 cells, 2 μM VAF347, 24 hours, average. The protocol:
The ability of Compound A to inhibit AHR-dependent Cyp1A1 gene expression was examined in vitro by measuring changes in Cyp1A1 enzymatic activity in 2 rodent hepatoma cell lines following AHR agonist stimulation. Mouse Hepa1.6 and rat H411E hepatoma cells were treated with AHR agonists VAF347 and L-kynurenine, respectively, in the presence of Compound A at multiple concentrations for 24 hours. The inhibition of Cyp1A1 expression was subsequently evaluated by measuring Cyp1A1 enzyme activity using P450-Glo assays.

The nature of data set [2]: Nonclinical safety studies incl. 28-day GLP study in monkeys. The format is in vivo. An excerpt: (§1) The nonclinical safety of Compound A has been evaluated in a series of pharmacological, single-dose and repeated-dose toxicological studies in rodent and non-rodent species including 28-day Good Laboratory Practice (GLP) studies in rat and monkeys. […] All changes were resolved or resolving after 2 weeks of dosing cessation, except for the testicular changes in rats. The nonclinical safety assessment from these studies supports clinical evaluation of Compound A in humans. The initial planned dose of Compound A for this study is 200 mg once daily (QD), based on evaluation of the Compound A nonclinical safety data.
During dose escalation, a minimum of 3 patients are required at each dose. Depending on accrual rate and occurrence of DLTs, 3, 4, 5, or 6 patients may be enrolled at each new dose until the last of those patients completes the 21-day DLT assessment period. Based on the mTPI-2 design, the number of patients who are enrolled at a dose but are not yet fully evaluable for DLT assessment may not exceed the number of remaining patients who are at risk of developing a DLT before the dose would be considered unacceptably toxic. In general, 3 to 14 patients can be enrolled at a given dose level. Administration of Compound A to the first 2 patients in each new dose cohort is staggered by a minimum of 15 hours.

Data set [3] deals with AHR. In words: Pharmacodynamics: VAG539-induced CYP1A1 mRNA in mouse liver and spleen. The format is in vivo, C57BL/6 mice. The note with it: 25 mg/kg Compound A oral. How it is done: The pharmacodynamic effect of Compound A on the inhibition of AHR-dependent gene expression in liver and spleen was examined in C57BL/6 mice.
Mice were sacrificed at 4 and 10 hours post-dose and RNA was extracted and gene expression of CYP1A1 and the housekeeping gene mouse glyceraldehyde 3-phosphate dehydrogenase were quantified. CYP1A1 mRNA expression levels for each dose group for liver and spleen tissues were normalized to the control group.

Data set [4] in a line: Nonclinical safety studies incl. 28-day GLP study in rat. Type of data set: in vivo. The following applies: rats.
Excerpt: as §1

As to `CC(C)c1cnn2c(N[C@@H]3CCc4[nH]c5ccccc5c4C3)nc(-c3cncc(F)c3)nc12` [Compound A, (R)—N-(2-(5-fluoropyridin-3-yl)-8-isopropylpyrazolo[1,5-a][1,3,5]triazin-4-yl)-2,3,4,9-tetrahydro-1H-carbazol-3-amine], the IC50 (commonly the concentration needed to halve the response being measured) in data set [1] came out at 36 nM. For the same molecule, the “noteworthy findings in nonclinical safety studies” value in data set [2] (monkey) was “decreased thymus weights and cortical lymphocytes”; in data set [4], “non-glandular stomach ulceration and edema; also recorded: seminiferous tubule degeneration and debris in the epididymis lumen”. Moreover, the AUC – broadly, concentration integrated over time – in data set [2] (monkey, primates, plasma, read-out: AUC where QTc increases are noted) amounted to 188 µg·h/mL. The Cmax (as a rule, the highest concentration seen after dosing) in data set [2] (monkey, primates, plasma, read-out: Cmax where QTc increases are noted) stood at 11200 ng/mL. In data set [2] (monkeys), the QTc prolongation result is listed as “up to 11%”. Further, in data set [3] (with 30 mg/kg VAG539), the “inhibition of CYP1A1 mRNA increases induced by VAG539 in the liver” value is “Complete inhibition”. For the same molecule, the “inhibition of CYP1A1 mRNA induction in the spleen” value in data set [3] (with 30 mg/kg VAG539, at 4 hours) was “complete inhibition”.
